Assays:
[1] = test system: cytolysin positive strain of E. faecalis; test: Enterococcus faecalis cultures, growth by optical density at 600 nm; format: cell-based; details: BHI media with 0, 0.25, 0.5, 1, 2 or 20 mg/mL of 2′-FL, 6 h, sampling every 30 min (FIG. 5G)
Procedure: Enterococcus faecalis cultures. A cytolysin positive strain of E. faecalis, which was isolated from feces of an ethanol-fed Atp4a^s1/s1 mouse, was cultured in BHI media with 0, 0.25, 0.5, 1, 2 or 20 mg/mL of 2′-FL in triplicate for each concentration. Sampling was taken at 30 min intervals during the course of 6 h. Cell growth was determined by measuring the optical density at 600 nm for each time-point.

E. faecalis = test: Fecal E. faecalis and cytolysin by qPCR in chronic-binge ethanol diet-fed mice; format: in vivo, mouse; details: Fut2^−/− mice
Procedure: In the 2′-fucosyllactose (2′-FL; a gift from Jennewein Biotechnologie GmbH, Germany) supplementation experiments we used a chronic-binge ethanol diet (NIAAA model). Fut2^−/− mice (10-11 weeks, male and female) were fed with Lieber-DeCarli diet with caloric intake from ethanol 0% on days 1-5 and 36% of total calories from day 6 to day 16. At day 16 in the early morning, mice were gavaged with a single dose of ethanol (5 g/kg body weight) and harvested 9 hours later. In the 2′-FL treated groups 2′-FL was added in the ethanol diet at a final concentration of 2 mg/mL and given continuously during the study period.
Reverse transcription and real-time quantitative PCR. For reverse transcription qPCR, RNA was extracted from mouse liver, and cDNAs were generated as described. DNA from mouse feces was extracted using QIAamp Fast DNA Stool kit (Qiagen, 51604). Quantitative PCR was performed with iTaq universal SYBR Green Supermix (Bio-Rad, 1725124) using a StepOnePlus thermocycler real-time PCR system. Primer sequences for mouse genes were obtained from the NIH qPrimerDepot. The values of mouse genes were normalized to 18S, while bacterial genes were normalized to 16S.

Fut2^−/− mice = test: 2′-FL supplementation in chronic-binge ethanol diet (NIAAA model), ethanol-induced liver disease; format: in vivo, mouse
Procedure: In the 2′-fucosyllactose (2′-FL; a gift from Jennewein Biotechnologie GmbH, Germany) supplementation experiments we used a chronic-binge ethanol diet (NIAAA model). Fut2^−/− mice (10-11 weeks, male and female) were fed with Lieber-DeCarli diet with caloric intake from ethanol 0% on days 1-5 and 36% of total calories from day 6 to day 16. At day 16 in the early morning, mice were gavaged with a single dose of ethanol (5 g/kg body weight) and harvested 9 hours later. In the 2′-FL treated groups 2′-FL was added in the ethanol diet at a final concentration of 2 mg/mL and given continuously during the study period. Formalin-fixed and paraffin-embedded mouse livers were stained with hematoxylin-eosin (Leica Biosystems Inc.) using standard staining protocols. Frozen liver sections were stained with Oil Red O (Sigma-Aldrich, 00625). Biochemical assays. Levels of plasma alanine aminotransferase (ALT) were measured using infinity ALT kit (Thermo Scientific, TR71121). Triglyceride levels were measured using the Triglyceride Liquid Reagents Kit (Pointe Scientific, 51604). Reverse transcription and real-time quantitative PCR. For reverse transcription qPCR, RNA was extracted from mouse liver, and cDNAs were generated as described. DNA from mouse feces was extracted using QIAamp Fast DNA Stool kit (Qiagen, 51604). Quantitative PCR was performed with iTaq universal SYBR Green Supermix (Bio-Rad, 1725124) using a StepOnePlus thermocycler real-time PCR system. Primer sequences for mouse genes were obtained from the NIH qPrimerDepot. The values of mouse genes were normalized to 18S, while bacterial genes were normalized to 16S.

CC1O[C@@H](OC2[C@H](O[C@@H]3C(CO)OC(O)C(O)[C@H]3O)OC(CO)[C@H](O)[C@@H]2O)[C@@H](O)C(O)[C@@H]1O (stereo partly shown) [2′-FL, 2′-fucosyllactose]
E. faecalis growth (OD600) [1]: not affected
Intestinal amount of E. faecalis (fecal E. faecalis, qPCR) (E. faecalis; chronic-binge ethanol diet with or without 2′-FL for 2 weeks (FIG. 5E)): decreased
Fecal cytolysin (qPCR) (E. faecalis; chronic-binge ethanol diet with or without 2′-FL for 2 weeks (FIG. 5F)): decreased
Metabolism of ethanol (plasma ethanol, hepatic Adh1 mRNA, hepatic Cyp2e1 mRNA) (Fut2^−/− mice; 2′-FL 2 mg/mL in diet for 2 weeks (FIG. 4G-4I)): without affecting
Plasma alanine aminotransferase (ALT) (Fut2^−/− mice; 2′-FL 2 mg/mL in diet for 2 weeks, compared with ethanol diet alone (FIG. 4A)): lower
Hepatic triglyceride (Fut2^−/− mice; 2′-FL 2 mg/mL in diet for 2 weeks, compared with ethanol diet alone (FIG. 4B)): lower
Liver histopathology (H&E-stained liver tissue) (Fut2^−/− mice; 2′-FL 2 mg/mL in diet for 2 weeks, compared with ethanol diet alone (FIG. 4C)): improvement
Hepatic Cxcl1 mRNA level (Fut2^−/− mice; 2′-FL 2 mg/mL in diet for 2 weeks, compared with ethanol diet alone (FIG. 4D)): decreased
Hepatic Cxcl2 mRNA level (Fut2^−/− mice; 2′-FL 2 mg/mL in diet for 2 weeks, compared with ethanol diet alone (FIG. 4E)): decreased
Oil Red O staining of liver tissue (Fut2^−/− mice; 2′-FL 2 mg/mL in diet for 2 weeks, compared with ethanol diet alone (FIG. 4F)): improvement

Source: patent US11896603B2, “Oligosaccharide as therapeutic agent for alcohol associated liver disease” (The Regents of the University of California, priority 2020, dated 2024)
